Measurements taken from patent US20080004253A1, “Thiazolopyrimidine modulators of TRPV1” (priority 2006, published 2008).

What was measured:
[1] = target: T1, human TRPV1 (Homo sapiens, UniProt Q8NER1); assay: Functional assay: block of capsaicin-induced Ca2+ influx, human assay (hTRPV1/HEK293, FLIPR); assay type: cell-based; conditions: hTRPV1/HEK293 cells, 150 nM capsaicin challenge, Fluo-3 fluorescence; mean; > value = solubility limit in assay medium
T1 construct: expressed in transfected cells; host or cells: HEK293 (hTRPV1/HEK293), zeocin selection
T1 sequence (Q8NER1 whole entry): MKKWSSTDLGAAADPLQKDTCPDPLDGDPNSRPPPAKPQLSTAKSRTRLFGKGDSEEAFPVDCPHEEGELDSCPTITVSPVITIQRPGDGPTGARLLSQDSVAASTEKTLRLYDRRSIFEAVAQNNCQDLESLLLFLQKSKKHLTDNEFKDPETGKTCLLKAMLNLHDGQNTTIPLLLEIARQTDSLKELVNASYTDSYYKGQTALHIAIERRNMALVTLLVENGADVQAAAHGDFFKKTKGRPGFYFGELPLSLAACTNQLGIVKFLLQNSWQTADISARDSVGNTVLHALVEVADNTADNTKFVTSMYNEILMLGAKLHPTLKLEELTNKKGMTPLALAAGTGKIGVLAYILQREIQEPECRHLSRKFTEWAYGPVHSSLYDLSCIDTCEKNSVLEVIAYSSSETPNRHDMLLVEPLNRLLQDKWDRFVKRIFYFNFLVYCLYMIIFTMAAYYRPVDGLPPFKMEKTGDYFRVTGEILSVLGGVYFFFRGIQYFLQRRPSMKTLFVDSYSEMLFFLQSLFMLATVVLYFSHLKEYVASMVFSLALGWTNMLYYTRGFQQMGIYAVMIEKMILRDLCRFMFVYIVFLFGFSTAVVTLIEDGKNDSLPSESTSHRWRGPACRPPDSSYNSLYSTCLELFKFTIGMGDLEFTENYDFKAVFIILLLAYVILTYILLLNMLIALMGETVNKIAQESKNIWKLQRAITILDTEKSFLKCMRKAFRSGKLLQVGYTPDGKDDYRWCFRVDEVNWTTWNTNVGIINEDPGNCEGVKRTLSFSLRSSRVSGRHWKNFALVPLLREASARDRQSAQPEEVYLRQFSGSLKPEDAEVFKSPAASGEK
Method: (§1) Functional assay: block of capsaicin-induced Ca^2+ influx
(§2) HEK293 cells were transfected with human TRPV1 cloned in pcDNA3.1zeo(+) using the Effectene non-liposomal lipid based transfection kit (Qiagen) (hTRPV1/HEK293). hTRPV1/HEK293 cells were routinely grown as monolayers under selection in zeocin (200 μg/mL; Invitrogen) in Dulbecco's Modified Eagle Medium (DMEM, Gibco BRL) supplemented with 10% fetal bovine serum, and penicillin/streptomycin (50 units/mL) in 5% CO2 at 37° C. Cells were passaged frequently, every 3-5 days, to avoid overgrowth, depletion of essential medium components, or acidic medium exposure. Cells were passaged using a brief wash in 0.05% trypsin with 1 mM EDTA, followed by dissociation in divalent-free phosphate-buffered saline (Hyclone #SH30028.02). […] The assay buffer was composed of 130 mM NaCl, 2 mM KCl, 2 mM MgCl2, 10 mM HEPES, 5 mM glucose, and either 2 mM or 20 μM CaCl2. On the day of the experiment, the culture medium was replaced with 2 mM calcium assay buffer using an automated plate washer (ELx405; Biotek, VT). […] After loading the cells, the dye solution was replaced with 50 μL/well of 20 μM calcium assay buffer using the ELx405 plate washer. Test compounds (50 μL/well) were added to the plate and incubated for 30 min. […] The IC50 values were determined. […] The contents of the wells were mixed 3 times (40 μL mix volume) immediately after the additions were made. Concentration-dependence of block was determined by exposing each well of cells in duplicate rows of a 96-well plate to a serial dilution of test compound. The concentration series usually started at 10 μM with a three-fold serial decrement in concentration. The magnitude of the capsaicin response was determined by measuring the change in fluo3 fluorescence before and 100 seconds after the addition of the agonist. Data were analyzed using a non-linear regression program (Origin; OriginLab, MA).
(§3) IC50 values shown are the average (mean) of the results obtained. […] Compounds were tested in either the free base or trifluoroacetic acid salt form.

[2] = target: T2, rat TRPV1 (Rattus norvegicus, UniProt O35433); assay: Functional assay: block of capsaicin-induced Ca2+ influx, rat assay (rTRPV1/HEK293, FLIPR); assay type: cell-based; conditions: rTRPV1/HEK293 cells, capsaicin challenge, Fluo-3 fluorescence; mean; > value = solubility limit in assay medium
T2 construct: expressed in transfected cells; host or cells: HEK293 (rTRPV1/HEK293), geneticin selection
T2 sequence (O35433 whole entry): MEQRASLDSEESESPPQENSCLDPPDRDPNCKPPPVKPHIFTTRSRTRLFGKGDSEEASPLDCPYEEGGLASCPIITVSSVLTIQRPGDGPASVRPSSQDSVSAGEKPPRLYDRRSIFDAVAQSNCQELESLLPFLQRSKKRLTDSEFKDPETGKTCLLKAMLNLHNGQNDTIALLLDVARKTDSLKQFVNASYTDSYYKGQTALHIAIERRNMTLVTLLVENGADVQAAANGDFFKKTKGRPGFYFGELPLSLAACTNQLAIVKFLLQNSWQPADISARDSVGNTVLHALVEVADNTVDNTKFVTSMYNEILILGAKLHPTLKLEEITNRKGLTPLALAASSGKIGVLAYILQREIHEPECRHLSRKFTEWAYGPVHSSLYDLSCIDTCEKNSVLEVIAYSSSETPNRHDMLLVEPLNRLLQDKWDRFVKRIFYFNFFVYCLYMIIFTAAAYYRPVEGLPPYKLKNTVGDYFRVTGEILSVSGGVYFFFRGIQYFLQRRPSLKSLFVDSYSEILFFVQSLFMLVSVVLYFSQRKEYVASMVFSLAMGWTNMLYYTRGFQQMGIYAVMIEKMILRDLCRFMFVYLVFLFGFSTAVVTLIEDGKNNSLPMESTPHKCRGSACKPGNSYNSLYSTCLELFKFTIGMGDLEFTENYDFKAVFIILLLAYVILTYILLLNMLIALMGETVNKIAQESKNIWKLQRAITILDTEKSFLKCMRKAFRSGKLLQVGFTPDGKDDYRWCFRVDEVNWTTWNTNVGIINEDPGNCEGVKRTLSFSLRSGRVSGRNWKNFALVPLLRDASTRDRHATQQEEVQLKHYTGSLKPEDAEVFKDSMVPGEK
Method: as §1, §2
This assay was performed similarly to the human assay described above, but using HEK293 cells transfected with rat TRPV1 (rTRPV1/HEK293).
as §3

Q: For `Cc1nc(Nc2ccc(C(C)(C)C)cc2)c2nc(Nc3c(Cl)cccc3Cl)sc2n1` [Example 7, N^7-(4-tert-Butyl-phenyl)-N^2-(2,6-dichloro-phenyl)-5-methyl-thiazolo[5,4-d]pyrimidine-2,7-diamine], which IC50 [1] is on record?
A: 5 nM

Q: What about the IC50 [2] of the same compound?
A: 1 nM

Q: With `Cc1nc(N(C)c2ccc(C(F)(F)F)cc2)c2nc(Nc3c(Cl)cccc3Cl)sc2n1` [Example 9, N^2-(2,6-Dichloro-phenyl)-5,N^7-dimethyl-N^7-(4-trifluoromethyl-phenyl)-thiazolo[5,4-d]pyrimidine-2,7-diamine] as the compound, how does the IC50 [1] read?
A: > 20000 nM

Q: And the IC50 [2]?
A: > 20000 nM

Q: For `Cc1cccc(C)c1Nc1nc2c(Nc3ccc(C(F)(F)F)cc3)ncnc2s1` [Example 10, N^2-(2,6-Dimethyl-phenyl)-N^7-(4-trifluoromethyl-phenyl)thiazolo[5,4,d]pyrimidine-2,7-diamine], which IC50 [1] is on record?
A: 26 nM

Q: And the IC50 [2]?
A: 6 nM

Q: What does the source list for `Cc1cccc(C)c1Nc1nc2c(Nc3ccc(C(F)(F)F)nc3)ncnc2s1` [Example 11, N^2-(2,6-Dimethyl-phenyl)-N^7-(6-trifluoromethyl-pyridin-3-yl)-thiazolo[5,4-d]pyrimidine-2,7-diamine]?
A: IC50 [1]: 23 nM; IC50 [2]: 7 nM

Q: Which IC50 [1] does the source give for `Cc1cccc(C)c1Nc1nc2c(Nc3ccc(C(C)(C)C)cc3)ncnc2s1` [Example 12, N^7-(4-tert-Butyl-phenyl)-N^2-(2,6-dimethyl-phenyl)-thiazolo[5,4-d]pyrimidine-2,7-diamine] here?
A: 30 nM

Q: What about the IC50 [2] of the same compound?
A: 4 nM

Q: `Cc1cccc(C)c1Nc1nc2c(Nc3ccc(C(F)(F)F)c(Cl)c3)ncnc2s1` [Example 13, N^7-(3-Chloro-4-trifluoromethyl-phenyl)-N^2-(2,6-dimethyl-phenyl)-thiazolo[5,4-d]pyrimidine-2,7-diamine] was tested. Which IC50 [1] did it give?
A: 113 nM

Q: And the IC50 [2]?
A: 34 nM

Q: How did the IC50 [1] turn out when `Cc1cccc(Cl)c1Nc1nc2c(Nc3ccc(C(F)(F)F)cc3)ncnc2s1` [Example 14, N^2-(2-Chloro-6-methyl-phenyl)-N^7-(4-trifluoromethyl-phenyl)-thiazolo[5,4-d]pyrimidine-2,7-diamine] was run?
A: 11 nM

Q: What about the IC50 [2] of the same compound?
A: 1 nM

Q: How did the IC50 [1] turn out when `Cc1cccc(Cl)c1Nc1nc2c(Nc3ccc(C(F)(F)F)nc3)ncnc2s1` [Example 15, N^2-(2-Chloro-6-methyl-phenyl)-N^7-(6-trifluoromethyl-pyridin-3-yl)-thiazolo[5,4-d]pyrimidine-2,7-diamine] was run?
A: 13 nM

Q: And the IC50 [2]?
A: 5 nM

Q: With `FC(F)(F)c1ccc(Nc2ncnc3sc(Nc4ccccc4Cl)nc23)cc1` [Example 16, N^2-(2-Chloro-phenyl)-N^7-(4-trifluoromethyl-phenyl)-thiazolo[5,4-d]pyrimidine-2,7-diamine] as the compound, how does the IC50 [1] read?
A: 92 nM

Q: What about the IC50 [2] of the same compound?
A: 39 nM

Q: What does the source list for `Cc1ccccc1Nc1nc2c(Nc3ccc(C(F)(F)F)cc3)ncnc2s1` [Example 17, N^2-o-Tolyl-N^7-(4-trifluoromethyl-phenyl)-thiazolo[5,4-d]pyrimidine-2,7-diamine]?
A: IC50 [1]: 70 nM; IC50 [2]: 19 nM

Q: Which IC50 [1] does the source give for `FC(F)(F)c1ccc(Nc2ncnc3sc(Nc4c(Cl)cccc4C(F)(F)F)nc23)cc1` [Example 18, N^2-(2-Chloro-6-trifluoromethyl-phenyl)-N^7-(4-trifluoromethyl-phenyl)-thiazolo[5,4-d]pyrimidine-2,7-diamine] here?
A: 30 nM

Q: What about the IC50 [2] of the same compound?
A: 9 nM

Q: How did the IC50 [1] turn out when `FC(F)(F)c1ccc(Nc2ncnc3sc(Nc4c(Cl)cccc4C(F)(F)F)nc23)cn1` [Example 19, N^2-(2-Chloro-6-trifluoromethyl-phenyl)-N^7-(6-trifluoromethyl-pyridin-3-yl)-thiazolo[5,4-d]pyrimidine-2,7-diamine] was run?
A: 74 nM

Q: What about the IC50 [2] of the same compound?
A: 31 nM

Q: What does the source list for `FC(F)(F)c1ccc(Nc2ncnc3sc(Nc4ccccc4)nc23)cc1` [Example 20, N^2-Phenyl-N^7-(4-trifluoromethyl-phenyl)-thiazolo[5,4-d]pyrimidine-2,7-diamine]?
A: IC50 [1]: > 6670 nM; IC50 [2]: 2680 nM

Q: `FC(F)(F)c1ccc(Nc2ncnc3sc(Nc4ccccc4)nc23)cn1` [Example 21, N^2-Phenyl-N^7-(6-trifluoromethyl-pyridin-3-yl)-thiazolo[5,4-d]pyrimidine-2,7-diamine] was tested. Which IC50 [1] did it give?
A: 557 nM

Q: What about the IC50 [2] of the same compound?
A: 299 nM

Q: For `FC(F)(F)c1ccc(Nc2nc3c(Nc4ccc(C(F)(F)F)cc4)ncnc3s2)cc1` [Example 22, N^2,N^7-Bis-(4-trifluoromethyl-phenyl)-thiazolo[5,4-d]pyrimidine-2,7-diamine], which IC50 [1] is on record?
A: > 6670 nM

Q: And the IC50 [2]?
A: 1690 nM

Q: Which IC50 [1] does the source give for `Cc1nc(Nc2ccc(C(F)(F)F)cc2)c2nc(N(C)c3c(Cl)cccc3Cl)sc2n1` [Example 23, N^2-(2,6-Dichloro-phenyl)-5,N^2-dimethyl-N^7-(4-trifluoromethyl-phenyl)-thiazolo[5,4-d]pyrimidine-2,7-diamine] here?
A: 1140 nM

Q: What about the IC50 [2] of the same compound?
A: 319 nM

Q: What does the source list for `Cc1noc(C)c1Nc1nc2c(Nc3ccc(C(F)(F)F)nc3)ncnc2s1` [Example 24, N^2-(3,5-Dimethyl-isoxazol-4-yl)-N^7-(6-trifluoromethyl-pyridin-3-yl)-thiazolo[5,4-d]pyrimidine-2,7-diamine]?
A: IC50 [1]: 2360 nM; IC50 [2]: 709 nM

Q: Which results are given for `Cc1noc(C)c1Nc1nc2c(Nc3ccc(C(F)(F)F)cc3)ncnc2s1` [Example 25, N^2-(3,5-Dimethyl-isoxazol-4-yl)-N^7-(4-trifluoromethyl-phenyl)-thiazolo[5,4-d]pyrimidine-2,7-diamine]?
A: IC50 [1]: 421 nM; IC50 [2]: 68 nM

Q: Which results are given for `Cc1nc(Nc2ccc(C(F)(F)F)nc2)c2nc(Nc3c(-c4ccccc4)noc3C)sc2n1` [Example 26, 5-Methyl-N^2-(5-methyl-3-phenyl-isoxazol-4-yl)-N^7-(6-trifluoromethyl-pyridin-3-yl)-thiazolo[5,4-d]pyrimidine-2,7-diamine]?
A: IC50 [1]: 208 nM; IC50 [2]: 55 nM

Q: Which results are given for `Cc1nc(Nc2ccc(C(F)(F)F)cc2)c2nc(Nc3c(-c4ccccc4)noc3C)sc2n1` [Example 27, 5-Methyl-N^2-(5-methyl-3-phenyl-isoxazol-4-yl)-N^7-(4-trifluoromethyl-phenyl)-thiazolo[5,4-d]pyrimidine-2,7-diamine]?
A: IC50 [1]: 91 nM; IC50 [2]: 25 nM

Q: How did the IC50 [1] turn out when `Cc1cccc(C)c1Nc1nc2c(Nc3ccc(OC(F)(F)F)cc3)ncnc2s1` [Example 28, N^2-(2,6-Dimethyl-phenyl)-N^7-(4-trifluoromethoxy-phenyl)-thiazolo[5,4-d]pyrimidine-2,7-diamine] was run?
A: 81 nM

Q: What about the IC50 [2] of the same compound?
A: 39 nM

Q: With `Cc1cccc(C)c1Nc1nc2c(Nc3ccc(C#N)nc3)ncnc2s1` [Example 29, 5-[2-(2,6-Dimethyl-phenylamino)-thiazolo[5,4-d]pyrimidin-7-ylamino]-pyridine-2-carbonitrile] as the compound, how does the IC50 [1] read?
A: 207 nM

Q: And the IC50 [2]?
A: 178 nM

Q: With `Cc1nc(Nc2ccc(C(F)(F)F)c(Cl)c2)c2nc(Nc3c(Cl)cccc3Cl)sc2n1` [Example 30, N^7-(3-Chloro-4-trifluoromethyl-phenyl)-N^2-(2,6-dichloro-phenyl)-5-methyl-thiazolo[5,4-d]pyrimidine-2,7-diamine] as the compound, how does the IC50 [1] read?
A: 3 nM

Q: What about the IC50 [2] of the same compound?
A: 3 nM

Q: With `Cc1cccc(C)c1Nc1nc2c(Nc3ccc(C#N)cc3)ncnc2s1` [Example 31, 4-[2-(2,6-Dimethyl-phenylamino)-thiazolo[5,4-d]pyrimidin-7-ylamino]-benzonitrile] as the compound, how does the IC50 [1] read?
A: 40 nM

Q: What about the IC50 [2] of the same compound?
A: 33 nM

Q: Which IC50 [1] does the source give for `Cc1cccc(C)c1Nc1nc2c(Nc3ccc(C(C)(C)C#N)cc3)ncnc2s1` [Example 32, 2-{4-[2-(2,6-Dimethyl-phenylamino)-thiazolo[5,4-d]pyrimidin-7-ylamino]-phenyl}-2-methyl-propionitrile] here?
A: 51 nM

Q: And the IC50 [2]?
A: 8 nM

Q: Which results are given for `COc1ccc(Nc2ncnc3sc(Nc4c(C)cccc4C)nc23)cc1` [Example 33, N^2-(2,6-Dimethyl-phenyl)-N^7-(4-methoxy-phenyl)-thiazolo[5,4-d]pyrimidine-2,7-diamine]?
A: IC50 [1]: 205 nM; IC50 [2]: 70 nM

Q: With `Cc1cccc(C)c1Nc1nc2c(Nc3ccc(Cl)c(Cl)c3)ncnc2s1` [Example 34, N^7-(3,4-Dichloro-phenyl)-N^2-(2,6-dimethyl-phenyl)-thiazolo[5,4-d]pyrimidine-2,7-diamine] as the compound, how does the IC50 [1] read?
A: > 6670 nM

Q: And the IC50 [2]?
A: > 6670 nM

Q: With `Cc1ccc(Nc2ncnc3sc(Nc4c(C)cccc4C)nc23)cc1` [Example 35, N^2-(2,6-Dimethyl-phenyl)-N^7-p-tolyl-thiazolo[5,4-d]pyrimidine-2,7-diamine] as the compound, how does the IC50 [1] read?
A: 31 nM

Q: What about the IC50 [2] of the same compound?
A: 10 nM

Q: Which IC50 [1] does the source give for `Cc1cccc(C)c1Nc1nc2c(Nc3ccccc3C(F)(F)F)ncnc2s1` [Example 36, N^2-(2,6-Dimethyl-phenyl)-N^7-(2-trifluoromethyl-phenyl)-thiazolo[5,4-d]pyrimidine-2,7-diamine] here?
A: > 6670 nM

Q: And the IC50 [2]?
A: > 6670 nM
